{
  "source": "patent US8859628B2",
  "about": "“Method for preventing, treating and diagnosing disorders of protein aggregation” (priority 2003, dated 2014)",
  "type_in_all_cases": "in vivo, mouse",
  "key": {"[1]": {"test_system": "TgCRND8 mice", "experiment": "Survival census (Kaplan-Meier)", "conditions": "at 175 days; n=35 per group", "description": "Survival Census—The probability of survival was assessed by the Kaplan-Meier technique, computing the probability of survival at every occurrence of death, thus making it suitable for small sample sizes. For the analyses of survival, 35 mice were used for each treatment group. The comparison between treatments was reported using the Tarone-Ware test."}, "[2]": {"test_system": "wild type mice", "experiment": "Control experiment: survival and general condition of treated wild type mice"}, "[3]": {"test_system": "TgCRND8 mice", "experiment": "Vascular amyloid burden", "conditions": "6 months of age", "description": "(§1) Cerebral amyloid burden—Brains were removed and one hemisphere was fixed in 4% paraformaldehyde and embedded in paraffin wax in the mid saggital plane. To generate sets of systematic uniform random sections, 5 μm serial sections were collected across the entire hemisphere. Sets of sections at […] intervals were used for analyses (10-14 sections/set). Plaque were identified after antigen retrieval with formic acid, and incubated with primary anti-Aβ antibody (Dako M-0872), followed by secondary antibody (Dako StreptABCcomplex/horseradish kit). End products were visualized with DAB counter-stained with hematoxylin. Amyloid plaque burden was assessed using Leco IA-3001 image analysis software interfaced with Leica microscope and Hitachi KP-M1U CCD video camera. Vascular burden was analyzed similarly and a dissector was used to measure the diameter of affected vessels.\nAlzheimer's disease is characterized by the presence of both parenchymal and vascular amyloid deposits. In untreated 6 month old TgCRND8 mice approximately 0.03% of the brain area is associated with vascular amyloid."}, "[4]": {"test_system": "non-Tg littermates", "experiment": "Morris Water Maze performance of treated non-Tg littermates", "conditions": "treated vs untreated non-Tg", "description": "(§2) Behavioral tests—After non-spatial pre-training, mice underwent place discrimination training for 5 days with 4 trials per day. Behavioral data was analyzed using a mixed model of factorial analysis of variance (ANOVA) with drug or genotype and training sessions as repeated measure factors.\nBehavioral Test—Reversal Study—Mice entered the Morris water maze test with a hidden platform on day one without pretraining. Mice were tested for 3 days with six trials per day. On the fourth day, the platform was removed from the pool and each mouse received one 30-s swim probe trial. On the last day the animals underwent a cue test in order to evaluate swimming ability, eye sight and general cognition. The cue test is composed at the platform being placed in a different quadrant than that used for testing and is tagged with a flag. Animals are allowed 60 s to find the platform. […] Behavioural data was analysed using a mixed model of factorial analysis of variance (ANOVA) with drug or genotype and training sessions as repeated measure factors."}, "[5]": {"test_system": "TgPS1xAPP mice", "experiment": "Plaque burden in double transgenic PS1 x APP model (prophylactic trial)", "conditions": "2 months of age", "excerpt": "Tg PS1 x APP mice are an enhanced model of Alzheimer's disease which express a mutant human PS1 transgene encoding two familial mutations (M146L and L286V) in conjunction with the human APP transgene encoding the Indiana and Swedish familial mutations. These animals develop robust expression of cerebral Aβ levels and amyloid deposition by 30-45 days of age."}, "[6]": {"test_system": "TgCRND8 mice", "experiment": "Plasma Aβ levels", "description": "(§3) Plasma and Cerebral Aβ Content—Hemi-brain samples were homogenized in a buffered sucrose solution, followed by either 0.4% diethylamine/100 mM NaCl for soluble Aβ levels or cold formic acid for the isolation of total Aβ. After neutralization the samples were diluted and analyzed for Aβ40 and Aβ42 using commercially available kits (BIOSOURCE International). Each hemisphere was analyzed in triplicate with the mean±SEM reported. Western blot analyses were performed on all fractions using urea gels for Aβ species analyses. Aβ was detected using 6E10 (BIOSOURCE International) and Enhanced Chemiluminenscence (Amersham).\nas §3, with “reported.” for “reported. Western blot analyses were performed on all fractions using urea gels for Aβ species analyses. Aβ was detected using 6E10 (BIOSOURCE International) and Enhanced Chemiluminenscence (Amersham).”"}, "[7]": {"test_system": "TgCRND8 mice", "experiment": "Cerebral amyloid plaque burden (anti-Aβ immunostaining, image analysis)", "description": "as §1\nas §1, with “camera.” for “camera. Vascular burden was analyzed similarly and a dissector was used to measure the diameter of affected vessels.”"}, "[8]": {"test_system": "TgCRND8 mice", "experiment": "Morris Water Maze, spatial reference memory version, five-day trial paradigm (prevention study)", "conditions": "6 months of age", "description": "Age and sex-matched cohorts of TgCRND8 mice and non-transgenic littermates (n=35 in each cohort) were either untreated, or were given a compound of the present invention as indicated below at 30 mg/day/mouse beginning at age of about 6 weeks. The mice were followed for outcome measures cognitive function, brain Aβ levels, brain pathology, and survival at 4 months and 6 months of age.\nTwo cohorts entered the study at 6 weeks of age and outcomes were analyzed at 4- and 6-months of age. The body weight, coat characteristics and in cage behavior was monitored. All experiments were performed according to the Canadian Council on Animal Care guidelines.\nas §2\nThe cognitive function of TgCRND8 mice was assessed using the spatial reference memory version of the Morris Water Maze using a five-day trial paradigm (FIGS. 1C-1H). […] The improved performance was also not due to nutritional or caloric effects because body weight, activity, and coat condition were not different between treated and untreated cohorts. […] Gender effects were not significant between any treatment group (p=0.85)."}, "[9]": {"conditions": "1 month treatment from 5 months of age"}, "[10]": {"conditions": "1 month treatment, 30 mg/mouse/day from 5 months, analyzed at 6 months of age"}, "[11]": {"conditions": "4 month prevention, 30 mg/mouse/day from 6 weeks of age"}, "[12]": {"conditions": "6 month prevention, 30 mg/mouse/day from 6 weeks of age"}},
  "note": "Entries after “also recorded” stand apart in the source; their conditions may differ. Marks after values point to notes of the source that are not given here.",
  "data": [
    {"smiles": "O[C@H]1[C@H](O)[C@@H](O)[C@H](O)[C@@H](O)[C@@H]1O", "note": "[Scyllo-Inositol, scyllo-inositol]", "values": [
      {"measurement": "survival", "setting": "[1]", "value": 72, "unit": "%"},
      {"measurement": "survival, weight, fur condition, cage behavior", "setting": "[2]", "value": "had no effect either on survival or on other parameters such as weight, fur condition or cage behavior"},
      {"measurement": "mean size of cerebrovascular plaques", "setting": "[3]; prevention", "value": "154±16"},
      {"measurement": "vascular amyloid burden vs untreated (words)", "setting": "[3]; prevention, listed as Scyllo-inositol", "value": "significantly decreased the total vascular load"},
      {"measurement": "vascular amyloid burden vs untreated (words)", "setting": "[3]; prevention, listed as scyllo-inositol", "value": "significantly decreased the vascular amyloid burden"},
      {"measurement": "vascular amyloid deposition in small vessels", "setting": "[3]; smaller vessels", "value": "56±2", "unit": "%"},
      {"measurement": "effect on performance of non-Tg mice", "setting": "[4]", "value": "had no effect on the performance of non-Tg mice; also recorded: not effected"},
      {"measurement": "amyloid/plaque burden vs untreated (words)", "setting": "[5]; listed as Scyllo-inositol", "value": "significantly decreased amyloid burden"},
      {"measurement": "amyloid/plaque burden vs untreated (words)", "setting": "[5]; listed as scyllo-inositol", "value": "significantly reduced"},
      {"measurement": "% brain area covered in plaques", "setting": "[5]; treated from weaning", "value": "0.065±0.016", "unit": "%"},
      {"measurement": "Plaque Count", "setting": "[5]; treated from weaning", "value": "1514±510"},
      {"measurement": "mean plaque size", "setting": "[5]; treated from weaning", "value": "149±5", "unit": "μm^2"},
      {"measurement": "Plasma Aβ Levels", "setting": "[6]; 1 month treatment", "value": "1980 ± 146", "unit": "pg/mL"},
      {"measurement": "effect on plasma Aβ levels in comparison to untreated (words)", "setting": "[6]; [9]", "value": "Neither myo-inositol, epi-inositol nor scyllo-inositol treatment had any effect on plasma Aβ levels"},
      {"measurement": "Plasma Aβ Levels Aβ40", "setting": "[6]; 2 month treatment", "value": "4507 ± 207", "unit": "pg/mL"},
      {"measurement": "Plasma Aβ Levels Aβ42", "setting": "[6]; 2 month treatment", "value": "3035 ± 236", "unit": "pg/mL"},
      {"measurement": "Plasma Aβ Levels", "setting": "[6]; 4 month prevention", "value": "952 ± 49", "unit": "pg/mL"},
      {"measurement": "Plasma Aβ Levels", "setting": "[6]; 6 month prevention", "value": "905 ± 55", "unit": "pg/mL"},
      {"measurement": "effect on plasma Aβ levels in comparison to untreated (words)", "setting": "[6]; prevention, 4- and 6-months of age", "value": "Neither epi-inositol nor scyllo-inositol treatment had any effect on plasma Aβ levels"},
      {"measurement": "plaque burden vs untreated", "setting": "[7]; [9]", "value": "significantly decreased the plaque burden and the Aβ load"},
      {"measurement": "Plaque Area", "setting": "[7]; [10]", "value": "420027 ± 14986* μm^2"},
      {"measurement": "Plaque Count", "setting": "[7]; [10]", "value": "1260 ± 27"},
      {"measurement": "Total Plaque Area/Total Brain Area", "setting": "[7]; [10]", "value": "0.119 ± 0.010", "unit": "%"},
      {"measurement": "Plaque Area", "setting": "[7]; [11]", "value": "63847 ± 2895", "unit": "μm^2"},
      {"measurement": "Plaque Count", "setting": "[7]; [11]", "value": "598 ± 19"},
      {"measurement": "Total Plaque Area/Total Brain Area", "setting": "[7]; [11]", "value": "0.015 ± 0.001", "unit": "%"},
      {"measurement": "Plaque Area", "setting": "[7]; [12]", "value": "262379 ± 5373† μm^2"},
      {"measurement": "Plaque Count", "setting": "[7]; [12]", "value": "774 ± 10"},
      {"measurement": "Total Plaque Area/Total Brain Area", "setting": "[7]; [12]", "value": "0.079 ± 0.013", "unit": "%"},
      {"measurement": "amyloid/plaque burden vs untreated (words)", "setting": "[7]; 6 months of age, prevention", "value": "significantly decreased amyloid burden and gliosis; also recorded: decreases plaque deposition"},
      {"measurement": "mean plaque size", "setting": "[7]; prevention, 4 months of age", "value": "103±4", "unit": "μm^2"},
      {"measurement": "decrease in brain area covered with plaques", "setting": "[7]; prevention, 6 months of age", "value": 35, "unit": "%"},
      {"measurement": "mean plaque size", "setting": "[7]; prevention, 6 months of age", "value": "339±10", "unit": "μm^2"},
      {"measurement": "reduction in plaque number", "setting": "[7]; prevention, 6 months of age", "value": 20, "unit": "%"},
      {"measurement": "cognitive function, treated TgCRND8 mice vs non-Tg littermates (words)", "setting": "[8]", "value": "indistinguishable from non-Tg littermates on all days; also recorded: approached that of non-Tg littermates"},
      {"measurement": "cognitive function, treated vs untreated TgCRND8 mice (words)", "setting": "[8]", "value": "performed significantly better than untreated TgCRND8 mice"}
    ]}
  ]
}
